The assay concerns 485368-065-R4-J2-PDC spheroids with HUVEC/MSC, viability. Briefly: Anticancer human tumor 485368-065-R4-J2-PDC patient-derived pancreatic carcinoma cell line growth inhibition [CLK]. The settings on record: for viability, T/C: stronger effect = lower value. An excerpt: A high-throughput screen of multi-cell type tumor spheroids was designed to identify active combinations of […] and targeted small molecules. Complex spheroids include a stromal component modeled by human endothelial cells (HUVEC) and fibroblasts modeled by human mesenchymal stem cells (MSCs). The concentration ranges selected for each drug and investigational agent were based upon clinically achievable concentrations if the clinical Cmax of the agent was known.
Compounds. The drugs and investigational agents: cirtuvivint (SM08502; NSC835563), CC-671 (NSC850746), vemurafenib (NSC761431), tapotoclax (NSC804041), sotorasib (NSC818433), adagrasib (NSC831453), MRTX-1133 (NSC836407), BAY2416964 (NSC825713), copanlisib (NSC816437), inavolisib (NSC800729), abemaciclib (NSC768073), osimertinib (NSC779217), entinostat (NSC756642), eltanexor (KPT-8602, NSC794443), venetoclax (NSC766270), ceralasertib (NSC777638), bortezomib (NSC756655), olaparib (NSC753686), talazoparib (NSC767125), alisertib (NSC759677), peposertib (NSC802822), gemcitabine (NSC613327), 5-fluorouracil (NSC19893), SN-38 (NSC673596), oxaliplatin (NSC266046), paclitaxel (NSC125973), and doxorubicin (NSC123127), were obtained from the National Cancer Institute (NCI) Developmental Therapeutics Program Chemical Repository. The FDA-approved anticancer drug set is available from the Developmental Therapeutics Program at https://dtp.cancer.gov/organization/dscb/obtaining/available plates.htm. […] The stock solutions were prepared in dimethyl sulfoxide (DMSO, Sigma-Aldrich, St. Louis, MO, cat. D2650), except for the platinum complexes which were prepared in saline (Quality Biological, Gaithersburg, MD, cat. 114-055-101), at 800-fold the tested concentration and stored at -70 degrees C prior to their use. All drugs and investigational agents were tested over a range starting from a high concentration at or near the clinical Cmax and decreasing in half-log increments. If the clinical Cmax for an agent had not been determined, the highest concentration tested was 10 microM.
Cell Culture. All cells were maintained in an incubator at 37 degrees C and 5% CO2 with 95% humidity. The PDC lines were cultured according to standard operating procedures established by the NCI PDMR. Briefly, all PDCs were thawed and cultured in Matrigel-coated flasks prepared with a working solution of 1X Ham's F-12 nutrient mix, without supplementation (Invitrogen, Waltham, MA, cat. 11765054), 100 U/mL penicillin-streptomycin (Invitrogen, cat. 15140122), and 2.5% Matrigel (Corning Inc., Corning, NY, cat. 354248) for the first three passages. The 947758-054-R-J2-PDC line was cultured in 6B/Colon 1A media, which includes advanced DMEM/F-12 (Thermo Fisher Scientific, cat. 12634028), 10 mM HEPES (Thermo Fisher Scientific, cat. 15630080), 1X GlutaMAX supplement (Thermo Fisher Scientific, cat. 35050061), 0.1 mg/mL primocin (InvivoGen, cat. ant-pm-2), 10% defined fetal bovine serum, heat inactivated (HyClone Laboratories Inc., cat. SH30070.03HI), 1.25 mM N-Acetyl-L-cysteine (Sigma-Aldrich, cat. A9165), 10 mM nicotinamide (Sigma-Aldrich, cat. N0636), 1X B-27 supplement (Thermo Fisher Scientific, cat. 17504044), 1X N-2 supplement (Thermo Fisher Scientific, cat. 17502048), and 10 microM Y-27632 dihydrochloride (Tocris Bioscience, cat. 1254). The 876862-298-R-J1-PDC was cultured in 6E media, which includes all 6B/Colon 1A media components plus 50% L-WRN conditioned media (ATCC, cat. CRL-3276), 50 ng/mL recombinant human EGF recombinant protein (hEGF; Thermo Fisher Scientific, cat. PHG0311), 10 ng/mL recombinant human fibroblast growth factor 10 (hGFG-10; PeproTech, cat. 100-26), 1 ng/mL recombinant human fibroblast growth factor 2 (hFGF-2; PeproTech, cat. 100-18B), and 1 µM prostaglandin E2 (PGE2; Tocris, cat. 2296). The 227483-062-R1-J1-PDC line was cultured in Panc media, containing all 6E components except hFGF-2, with the addition of 500 nM SB-431542 (Selleckchem, cat. S1067) and 10 nM gastrin (Tocris, cat. 3006). […]

Several values for one entry are separate records, joined by “and”; a condition that tells them apart may be missing. Equal values may be shown once.
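Further: spheroids exposed to compounds for seven days.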
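Wherever viability, T/C is given: 100% = DMSO vehicle control wells.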

For the molecule `C#Cc1c(F)ccc2cc(O)cc(-c3ncc4c(N5CC6CCC(C5)N6)nc(OCC56CCCN5CC(F)C6)nc4c3F)c12` (stereo unspecified), the viability, T/C (compound 0.0316 µM) is 99.6% and 90.9%; the viability, T/C (compound 0.1 µM) is 97.5% and 111%; the viability, T/C (compound 0.316 µM) was 102% and 103%; the viability, T/C (compound 1 µM) was 98.2% and 102%; the viability, T/C (compound 3.16 µM) is 117% and 107%; the viability, T/C (compound 10 µM) is 114% and 106%. Besides, the IC50 (curve of compound) was greater than 10000 nM.

On to `C=C(F)C(=O)N1CCN(c2nc(OCC3CCCN3C)nc3c2CCN(c2cccc4cccc(Cl)c24)C3)CC1CC#N` (stereo unspecified), for which the viability, T/C reads like this: (compound 0.0316 µM) 94.9% and 103%; (compound 0.1 µM) 97% and 106%; (compound 0.316 µM) 95.6% and 100%; (compound 1 µM) 106% and 105%; (compound 3.16 µM) 121% and 113%; (compound 10 µM) 104% and 126%. Under “curve of compound”, the IC50 is greater than 10000 nM.

For the molecule `C=CC(=O)N1CCN(c2nc(=O)n(-c3c(C)ccnc3C(C)C)c3nc(-c4c(O)cccc4F)c(F)cc23)C(C)C1` (stereo unspecified), the viability, T/C (compound 0.0316 µM) is 96.8% and 96.9%; the viability, T/C (compound 0.1 µM) is 96.4% and 107%; the viability, T/C (compound 0.316 µM) was 99.8% and 100%; the viability, T/C (compound 1 µM) is 97.9% and 106%; the viability, T/C (compound 3.16 µM) is 92.3% and 88.3%; the viability, T/C (compound 10 µM) is 89.2% and 93.7%. The IC50 (curve of compound) is greater than 10000 nM.

On to `C=CC(=O)Nc1cc(Nc2nccc(-c3cn(C)c4ccccc34)n2)c(OC)cc1N(C)CCN(C)C`, for which the viability, T/C is 109% and 99.5% (compound 0.000949 µM); 97.1% and 97.7% (compound 0.003 µM); 97.5% and 83.8% (compound 0.00949 µM); 104% and 97.5% (compound 0.03 µM); 110% and 96.7% (compound 0.0949 µM); 107% and 99.8% (compound 0.3 µM). Moreover, the IC50 (curve of compound) was greater than 300 nM.

Turning to `CC(C)CC(NC(=O)C(Cc1ccccc1)NC(=O)c1cnccn1)B(O)O` (stereo unspecified), the viability, T/C is, setting by setting: (compound 0.000949 µM) 89.2% and 97.4%; (compound 0.003 µM) 109% and 134%; (compound 0.00949 µM) 31.1%; (compound 0.03 µM) 23.3% and 18.4%; (compound 0.0949 µM) 12.5% and 15.6%; (compound 0.3 µM) 5.93% and 5.56%. Also, the IC50 (curve of compound) was 6.88 nM and 7.33 nM.

In the case of `CC(CO)NC(=O)c1cc(-c2ccc(Cl)cc2)nn(-c2cnn(C)c2)c1=O` (stereo unspecified), the viability, T/C (compound 0.0316 µM) was 86.9% and 92.3%; the viability, T/C (compound 0.1 µM) is 92.6% and 87.3%; the viability, T/C (compound 0.316 µM) is 97.4% and 89.7%; the viability, T/C (compound 1 µM) was 100% and 101%; the viability, T/C (compound 3.16 µM) is 107% and 110%; the viability, T/C (compound 10 µM) was 105% and 104%. Further, for the setting “curve of compound”, the IC50 was greater than 10000 nM.

For the molecule `CC(Nc1ccc2c(c1)OCCn1cc(N3C(=O)OCC3C(F)F)nc1-2)C(N)=O` (stereo unspecified), the viability, T/C runs as follows: (compound 0.0316 µM) 95.1% and 99.5%; (compound 0.1 µM) 102% and 117%; (compound 0.316 µM) 116% and 105%; (compound 1 µM) 100% and 102%; (compound 3.16 µM) 91.4% and 89.5%; (compound 10 µM) 86.5% and 79.1%. Also, the IC50 (curve of compound) was greater than 10000 nM.

As to `CCCS(=O)(=O)Nc1ccc(F)c(C(=O)c2c[nH]c3ncc(-c4ccc(Cl)cc4)cc23)c1F`, the viability, T/C runs as follows: (compound 0.0316 µM) 103% and 95.3%; (compound 0.1 µM) 109% and 96.8%; (compound 0.316 µM) 95.8% and 90.5%; (compound 1 µM) 93.7% and 90.6%; (compound 3.16 µM) 91.3% and 80.7%; (compound 10 µM) 123% and 108%. Besides, the IC50 (curve of compound) is greater than 10000 nM.

Consider `CCN1CCN(Cc2ccc(Nc3ncc(F)c(-c4cc(F)c5nc(C)n(C(C)C)c5c4)n3)nc2)CC1`, for which the viability, T/C is, setting by setting: (compound 0.00316 µM) 91.1% and 106%; (compound 0.01 µM) 114% and 96.1%; (compound 0.0316 µM) 115% and 116%; (compound 0.1 µM) 140% and 113%; (compound 0.316 µM) 128% and 129%; (compound 1 µM) 117% and 116%. For the same molecule, the IC50 (curve of compound) is greater than 1000 nM.

Take `CCc1c2c(nc3ccc(O)cc13)-c1cc3c(c(=O)n1C2)COC(=O)[C@]3(O)CC`: the viability, T/C by setting is: (compound 0.00316 µM) 46.5% and 55.5%; (compound 0.01 µM) 22.5% and 24.9%; (compound 0.0316 µM) 10.9% and 13.2%; (compound 0.1 µM) 7.63% and 7.75%; (compound 0.316 µM) 7.05% and 6.79%; (compound 1 µM) 14.8% and 15.6%. The IC50 (curve of compound) is < 3.16 nM and 3.83 nM.

Take `CN1CCN(c2cc(C(=O)Nc3cc4cc(-c5cnn(C)c5)ccc4cn3)ccn2)CC1`: the viability, T/C runs as follows: (compound 0.0316 µM) 95.6% [middle of 12 runs]; (compound 0.316 µM) 83% [middle of 12 runs]; (compound 1 µM) 0.9% [middle of 11 runs]; (compound 3.16 µM) 1.39% [middle of 12 runs]; (compound 10 µM) 1.68% [middle of 11 runs]. The IC50 (compound alone, run of 08/14/2023) is 504 nM [middle of 12 runs].

Turning to `CNC(=O)c1ccc(Nc2nc(OC3CCCC3)c3c(-c4ccc5nc(C)oc5c4)c[nH]c3n2)c(OC)c1`, the viability, T/C is 91.6% [middle of 12 runs] (compound 0.0316 µM); 96.7% [middle of 12 runs] (compound 0.1 µM); 82.6% [middle of 12 runs] (compound 0.316 µM); 70.9% [middle of 12 runs] (compound 1 µM); 71.5% [middle of 12 runs] (compound 3.16 µM); 76.5% [middle of 12 runs] (compound 10 µM). Besides, the IC50 (compound alone, run of 08/15/2023) is greater than 10000 nM.

Consider `COC1C=CCC(C)C(C)S(=O)(=O)NC(=O)c2ccc3c(c2)N(CC2CCC21)CC1(CCCc2cc(Cl)ccc21)CO3` (stereo unspecified), for which the viability, T/C was 92.5% and 105% (compound 0.0316 µM); 109% and 93.5% (compound 0.1 µM); 101% and 105% (compound 0.316 µM); 132% and 123% (compound 1 µM); 105% (compound 3.16 µM); 86.1% and 74.7% (compound 10 µM). In addition, the IC50 (curve of compound) was greater than 10000 nM.

For the molecule `COc1c(OCCCN2CCOCC2)ccc2c3n(c(=NC(=O)c4cnc(N)nc4)nc12)CCN3`, the viability, T/C is 97% and 92.1% (compound 0.00316 µM); 101% and 121% (compound 0.01 µM); 109% and 111% (compound 0.0316 µM); 77.3% and 65.7% (compound 0.1 µM); 50.9% and 52% (compound 0.316 µM); 41.1% and 39.6% (compound 1 µM). Further, the IC50 (curve of compound) is 281 nM and 248 nM.

Turning to `Cn1ncnc1[C@H]1c2n[nH]c(=O)c3cc(F)cc(c23)N[C@@H]1c1ccc(F)cc1`, the viability, T/C reads like this: (compound 0.000316 µM) 94.6% and 84.6%; (compound 0.001 µM) 88.2% and 97.3%; (compound 0.00316 µM) 100% and 92.9%; (compound 0.01 µM) 94.7% and 89.8%; (compound 0.0316 µM) 94.3% and 105%; (compound 0.1 µM) 97.9% and 98.6%. The IC50 (curve of compound) was greater than 100 nM.

With `NC(=O)C(=Cn1cnc(-c2cc(C(F)(F)F)cc(C(F)(F)F)c2)n1)c1cncnc1`, the viability, T/C is, setting by setting: (compound 0.00949 µM) 94.3% and 112%; (compound 0.03 µM) 120% and 123%; (compound 0.0949 µM) 176% and 183%; (compound 0.3 µM) 193% and 186%; (compound 0.949 µM) 169% and 182%; (compound 3 µM) 122% and 136%. The IC50 (curve of compound) was greater than 3000 nM.
